According to article PMC9557946, “Intermittent MEK inhibition for the treatment of metastatic uveal melanoma” (Frontiers in Oncology, 2022):
Several values for one entry are separate records, joined by “and”; a condition that tells them apart may be missing. Identical values can stand only once.

Legend:
[1] = Phase Ib trial of intermittent selumetinib: adverse events, DLT and MTD; format: in vivo
From the text: This was a multi-center, open-label, phase Ib study conducted at Columbia University Irving Medical Center (New York, NY), University of Texas MD Anderson Cancer Center (Houston, TX), and Memorial Sloan Kettering Cancer Center (New York, NY). […] Exploratory objectives included pharmacodynamic (PD) assessment of target inhibition of the MEK pathway.
The MTD was estimated using the time to event continual reassessment method (TITE-CRM) with a target DLT rate of 0.25 ([17]). TITE-CRM was used as it allows use of partial information before a complete follow-up is achieved and allows for a longer toxicity evaluation window beyond the first cycle to account for late onset toxicities. As a result, trials can be conducted in a continuous fashion. […] Based on prior clinical data, the estimated MTD prior to conduct of the trial was DL2.
Descriptive statistics were used to report baseline characteristics of the study population. The observed rate and estimated rate of DLT were reported for each dose level along with the 90% probability interval. The number and percentage of patients with adverse events were summarized taking the highest grade and reported by grade for AEs that were at least possibly related to treatment. AEs with at prevalence of least 10% were reported separately. The overall response rate (ORR) was defined as a confirmed complete response (CR) or partial response (PR) according to RECIST 1.1 criteria ([18]) and reported by dose level. […] PFS was measured from date of enrollment until the date of progression or death, whichever occurred first. OS was defined as the time from the date of registration to the date of death by any cause.
Toxicity was graded using National Cancer Institute Common Terminology Criteria for Adverse Events (CTCAE v. 4.0). For recurrent adverse events (AEs), the highest reported grade per event per patient was assessed. The DLT observation period was 8 weeks from the initiation of treatment.

[2] = clinical; conditions: human, in vivo
Procedure: Non-compartmental analyses were performed on the data for day 1, 2, 15 and 17 using Winnonlin software (Phoenix Winnonlin 8.3.1.5014, Certara L.P., Princeton, NJ). […] Data were summarized per dose level and per occasion. Dose-exposure relationships were explored by plotting dose versus the various parameters. Accumulation was investigated using the AUC assessed at various days.

[3] = test system: uveal melanoma; design: method as in PMID 22550165; conditions: ref [7], cited from earlier work
[4] = related to study treatment, 29 patients, all dose levels

## Cn1cnc2c(F)c(Nc3ccc(Br)cc3Cl)c(C(=O)NOCCO)cc21 [selumetinib]
[1]; 150 mg BID vs 75 mg BID
  increase of intermittent MTD over continuous dose MTD: 100%
[1]; 29 patients, all dose levels
  patients requiring dose reduction for treatment-related toxicity: 21%
  patients who discontinued therapy due to toxicity: Five patients discontinued therapy due to toxicity
  patients with at least one treatment-related AE of any grade: All patients
  patients with grade 3 or higher treatment-related AE: 17%
[1]; All dose levels, 29 patients
  Observed DLTs: 5
[1]; DL3 150 mg BID, 90% probability interval 16%-44%
  estimated probability of toxicity at the MTD: 29%
[1]; Dose Level 2 (125 mg BID)
  DLT Information: • Grade 3 Hypertension • Grade 3 Abdominal pain
[1]; Dose Level 2 (125 mg BID), 20 patients
  Observed DLTs: 2/20 and 2
[1]; Dose Level 3 (150 mg BID)
  DLT Information: • Grade 3 Abdominal pain • Grade 3 AST elevation
[1]; Dose Level 3 (150 mg BID), 5 patients
  Observed DLTs: 2/5 and 2
[1]; Dose Level 4 (175 mg BID)
  DLT Information: • Grade 3 AST elevation
[1]; Dose Level 4 (175 mg BID), 1 patient
  Observed DLTs: 1/1 and 1
[1]; all dose levels
  most common grade 3 AE: abdominal pain
  treatment discontinuation associated with liver enzyme elevation: 2 n
  treatment discontinuation associated with retinopathy: 2 n
[1]; all from progression of disease
  patients who died within 30 days of treatment discontinuation: 4 patients
[1]; [4]
  Abdominal pain, All Grades: 12 (41%) patients (%)
  Abdominal pain, Grade 1: 5 (17) n(%)
  Abdominal pain, Grade 2: 4 (14) n(%)
  Abdominal pain, Grade 3: 3 (10) n(%)
  Abdominal pain, Grade 4: 0 n(%)
  Anemia, All Grades: 13 (45%) patients (%)
  Anemia, Grade 1: 11 (38) n(%)
  Anemia, Grade 2: 1 (3) n(%)
  Anemia, Grade 3: 0 n(%)
  Anemia, Grade 4: 1 (3) n(%)
  Constipation, All Grades: 10 (34%) patients (%)
  Constipation, Grade 1: 8 (28) n(%)
  Constipation, Grade 2: 2 (7) n(%)
  Constipation, Grade 3: 0 n(%)
  Constipation, Grade 4: 0 n(%)
  Decreased WBC, All Grades: 8 (28%) patients (%)
  Decreased WBC, Grade 1: 5 (17) n(%)
  Decreased WBC, Grade 2: 2 (7) n(%)
  Decreased WBC, Grade 3: 1 (3) n(%)
  Decreased WBC, Grade 4: 0 n(%)
  Diarrhea, All Grades: 16 (55%) patients (%)
  Diarrhea, Grade 1: 14 (48) n(%)
  Diarrhea, Grade 2: 2 (7) n(%)
  Diarrhea, Grade 3: 0 n(%)
  Diarrhea, Grade 4: 0 n(%)
  Fatigue, All Grades: 25 (86%) patients (%)
  Fatigue, Grade 1: 19 (66) n(%)
  Fatigue, Grade 2: 6 (21) n(%)
  Fatigue, Grade 3: 0 n(%)
  Fatigue, Grade 4: 0 n(%)
  Hypertension, All Grades: 14 (48%) patients (%)
  Hypertension, Grade 1: 3 (10) n(%)
  Hypertension, Grade 2: 9 (31) n(%)
  Hypertension, Grade 3: 2 (7) n(%)
  Hypertension, Grade 4: 0 n(%)
  Increased AST/ALT, All Grades: 12 (41%) patients (%)
  Increased AST/ALT, Grade 1: 10 (34) n(%)
  Increased AST/ALT, Grade 2: 0 n(%)
  Increased AST/ALT, Grade 3: 2 (7) n(%)
  Increased AST/ALT, Grade 4: 0 n(%)
  Nausea, All Grades: 17 (59%) patients (%)
  Nausea, Grade 1: 12 (41) n(%)
  Nausea, Grade 2: 5 (17) n(%)
  Nausea, Grade 3: 0 n(%)
  Nausea, Grade 4: 0 n(%)
  Pruritus, Grade 1: 10 (34) n(%)
  Pruritus, Grade 2: 0 n(%)
  Pruritus, Grade 3: 0 n(%)
  Pruritus, Grade 4: 0 n(%)
  Rash acneiform, All Grades: 19 (65%) patients (%)
  Rash acneiform, Grade 1: 14 (48) n(%)
  Rash acneiform, Grade 2: 5 (17) n(%)
  Rash acneiform, Grade 3: 0 n(%)
  Rash acneiform, Grade 4: 0 n(%)
  Retinopathy/Blurred Vision, All Grades: 8 (28%) patients (%)
  Retinopathy/Blurred Vision, Grade 1: 8 (28) n(%)
  Retinopathy/Blurred Vision, Grade 2: 0 n(%)
  Retinopathy/Blurred Vision, Grade 3: 0 n(%)
  Retinopathy/Blurred Vision, Grade 4: 0 n(%)
  Vomiting, All Grades: 8 (28%) patients (%)
  Vomiting, Grade 1: 5 (17) n(%)
  Vomiting, Grade 2: 3 (10) n(%)
  Vomiting, Grade 3: 0 n(%)
  Vomiting, Grade 4: 0 n(%)
[2]
  half-life: 4.3 h
[2]; po
  Tmax: ~1.7 h
[3]; selumetinib 75 mg BID vs temozolomide or DTIC
  median PFS: 16 weeks
[3]; selumetinib 75 mg BID
  patients achieving an objective radiographic response: 14%
